Data reported in patent US9303018B2, “Inhibitors of leukotriene production” (Boehringer Ingelheim International GmbH, priority 2013, dated 2016).

Tests used:
human LTA4 hydrolase = human LTA4 hydrolase (Homo sapiens (Human), UniProt P09960); test: LTA4H Enzyme assay (peptidase, Arg-AMC cleavage); type: biochemical; conditions: LTA4H enzyme 1 nM, Arg-AMC substrate 50 μM, room temperature 1 h, fluorescence
Method: The compounds of the invention are assessed for the ability to interact with human LTA4 hydrolase in an enzymatic assay that measures the ability of the enzyme to cleave the peptide bond of arginyl-aminomethylcoumarin (Arg-AMC). LTA4H Enzyme (1 nM final), Arg-AMC substrate (50 μM final), and compound are combined in a reaction buffer (50 mM Tris-HCl (pH 7.5), 100 mM KCl, 0.5% bovine serum albumin) at room temperature for 1 h. The formation of product is assessed by measuring the fluorescence of aminomethylcoumarin product (excitation wavelength 380 nm/emission wavelength 460 nm).

[1] = tested on: synthesis of LTB4 in human whole blood; test: LTB4 production inhibition assay in human whole blood (HWB); type: cell-based; conditions: heparinized human whole blood, calcimycin 20 μM stimulated, plasma LTB4 by HTRF
Method: The compounds of the invention are additionally tested in a human whole blood (HWB) assay to determine their ability to inhibit the synthesis of LTB4 in a cellular system. Compounds are combined with heparinized human whole blood and incubated for 15 minutes at 37° C. Calcimycin (20 μM final, prepared in phosphate-buffered saline, pH 7.4) is then added and the mixture is incubated for another 30 minutes at 37° C. The samples are centrifuged for 5 min at low speed (1500×g) and the plasma layer is removed. Plasma LTB4 concentrations are then measured using an antibody-based homogenous time-resolved fluorescence method (CisBio, Bedford, Mass.).

human LTA4 hydrolase, sequence (P09960 whole entry): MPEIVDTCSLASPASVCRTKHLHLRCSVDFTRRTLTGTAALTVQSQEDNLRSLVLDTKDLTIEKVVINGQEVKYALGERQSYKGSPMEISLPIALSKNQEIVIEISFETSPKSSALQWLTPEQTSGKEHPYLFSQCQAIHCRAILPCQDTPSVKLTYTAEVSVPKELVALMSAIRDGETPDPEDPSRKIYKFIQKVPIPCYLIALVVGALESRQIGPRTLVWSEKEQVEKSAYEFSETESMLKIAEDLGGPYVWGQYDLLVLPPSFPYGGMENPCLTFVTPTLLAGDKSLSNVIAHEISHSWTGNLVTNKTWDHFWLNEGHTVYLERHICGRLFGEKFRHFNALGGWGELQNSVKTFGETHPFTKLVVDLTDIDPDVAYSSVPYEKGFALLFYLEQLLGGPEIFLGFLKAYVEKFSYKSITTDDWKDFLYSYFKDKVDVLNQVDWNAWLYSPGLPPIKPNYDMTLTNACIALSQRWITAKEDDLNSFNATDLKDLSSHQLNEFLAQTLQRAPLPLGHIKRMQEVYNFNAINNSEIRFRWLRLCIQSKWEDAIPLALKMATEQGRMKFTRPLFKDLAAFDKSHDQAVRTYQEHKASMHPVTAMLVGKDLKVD

SMILES	IC50 (human LTA4 hydrolase) [nM]	IC50 [1] [nM]
CC(=O)N1CC(CN(C)Cc2cnc3cc(Oc4ccc(-c5ccn[nH]5)cn4)ccc3c2)C1 [Example 16, 1-{3-[(Methyl-{7-[5-(2H-pyrazol-3-yl)-pyridin-2-yloxy]-quinolin-3-ylmethyl}-amino)-methyl]-azetidin-1-yl}-ethanone]	1.1	110
CN(C(=O)CO)C1CCN(Cc2cnc3cc(Oc4ccc(-c5ccn[nH]5)cn4)ccc3c2)CC1 [Example 15, 2-Hydroxy-N-methyl-N-(1-{7-[5-(2H-pyrazol-3-yl)-pyridin-2-yloxy]-quinolin-3-ylmethyl}-piperidin-4-yl)-acetamide]	3.5	380
O[C@@H]1CCN(Cc2cnc3cc(Oc4ccc(-c5ccn[nH]5)cn4)ccc3c2)C1 [Example 17, (R)-1-{7-[5-(2H-Pyrazol-3-yl)-pyridin-2-yloxy]-quinolin-3-ylmethyl}-pyrrolidin-3-ol]	1.7	230
C[C@H](O)C(=O)N1CCN(Cc2cnc3cc(Oc4ccc(-c5ccn[nH]5)cn4)ccc3c2)CC1 [Example 18]	1.1	180
O=C1OCCN1C1CCN(Cc2cnc3cc(Oc4ccc(-c5ccn[nH]5)cn4)ccc3c2)CC1 [Example 6, 3-(1-{7-[5-(2H-Pyrazol-3-yl)-pyridin-2-yloxy]-quinolin-3-ylmethyl}-piperidin-4-yl)-oxazolidin-2-one]	1.9	270
O=C(CO)N1CCN(Cc2cnc3cc(Oc4ccc(-c5ccn[nH]5)cn4)ccc3c2)CC1 [Example 1, 2-Hydroxy-1-(4-{7-[5-(2H-pyrazol-3-yl)-pyridin-2-yloxy]-quinolin-3-ylmethyl}-piperazin-1-yl)-ethanone]	0.69	160
CN(C)C(=O)C1CCN(Cc2cnc3cc(Oc4ccc(-c5ccn[nH]5)cn4)ccc3c2)CC1 [Example 19, 1-{7-[5-(2H-Pyrazol-3-yl)-pyridin-2-yloxy]-quinolin-3-ylmethyl}-piperidine-4-carboxylic acid dimethylamide]	1.5	480
OC1CN(Cc2cnc3cc(Oc4ccc(-c5ccn[nH]5)cn4)ccc3c2)C1 [Example 3, 1-{7-[5-(2H-Pyrazol-3-yl)-pyridin-2-yloxy]-quinolin-3-ylmethyl}-azetidin-3-ol]	4	430
CN(C(=O)CO)[C@H]1CCN(Cc2cnc3cc(Oc4ccc(-c5ccn[nH]5)cn4)ccc3c2)C1 [Example 11, 2-Hydroxy-N-methyl-N-((S)-1-{7-[5-(2H-pyrazol-3-yl)-pyridin-2-yloxy]-quinolin-3-ylmethyl}-pyrrolidin-3-yl)-acetamide]	2.6	250
O=C(C1CC1)N1CCN(Cc2cnc3cc(Oc4ccc(-c5ccn[nH]5)cn4)ccc3c2)CC1 [Example 22, Cyclopropyl-(4-{7-[5-(2H-pyrazol-3-yl)-pyridin-2-yloxy]-quinolin-3-ylmethyl}-piperazin-1-yl)-methanone]	0.93	230
CC(=O)N1CCN(Cc2cnc3cc(Oc4ccc(-c5ccn[nH]5)cn4)ccc3c2)CC1 [Example 2, 1-(4-{7-[5-(2H-Pyrazol-3-yl)-pyridin-2-yloxy]-quinolin-3-ylmethyl}-piperazin-1-yl)-ethanone]	0.6	150
CCC(=O)N1CCN(Cc2cnc3cc(Oc4ccc(-c5ccn[nH]5)cn4)ccc3c2)CC1 [Example 14, 1-(4-{7-[5-(2H-Pyrazol-3-yl)-pyridin-2-yloxy]-quinolin-3-ylmethyl}-piperazin-1-yl)-propan-1-one]	0.44	86
CN(Cc1cnc2cc(Oc3ccc(-c4ccn[nH]4)cn3)ccc2c1)[C@H]1CCN(C(=O)CO)C1 [Example 10, 2-Hydroxy-1-[(S)-3-(methyl-{7-[5-(2H-pyrazol-3-yl)-pyridin-2-yloxy]-quinolin-3-ylmethyl}-amino)-pyrrolidin-1-yl]-ethanone]	1.3	140
OC1CCN(Cc2cnc3cc(Oc4ccc(-c5ccn[nH]5)cn4)ccc3c2)CC1 [Example 7, l-{7-[5-(2H-Pyrazol-3-yl)-pyridin-2-yloxy]-quinolin-3-ylmethyl}-piperidin-4-ol]	3.7	500
CC(C)C(=O)N1CCN(Cc2cnc3cc(Oc4ccc(-c5ccn[nH]5)cn4)ccc3c2)CC1 [Example 23]	0.54	160
CC(C)(C)C(=O)N1CCN(Cc2cnc3cc(Oc4ccc(-c5ccn[nH]5)cn4)ccc3c2)CC1 [Example 21, 2,2-Dimethyl-1-(4-{7-[5-(2H-pyrazol-3-yl)-pyridin-2-yloxy]-quinolin-3-ylmethyl}-piperazin-1-yl)-propan-1-one]	1.7	740
O=C1[C@@H](O)CCN1C1CCN(Cc2cnc3cc(Oc4ccc(-c5ccn[nH]5)cn4)ccc3c2)CC1 [Example 5, (S)-3-Hydroxy-1-(1-{7-[5-(2H-pyrazol-3-yl)-pyridin-2-yloxy]-quinolin-3-ylmethyl}-piperidin-4-yl)-pyrrolidin-2-one]	2.6	370
CN(Cc1cnc2cc(Oc3ccc(-c4ccn[nH]4)cn3)ccc2c1)[C@@H]1CCN(C(=O)CO)C1 [Example 9, 2-Hydroxy-1-[(R)-3-(methyl-{7-[5-(2H-pyrazol-3-yl)-pyridin-2-yloxy]-quinolin-3-ylmethyl}-amino)-pyrrolidin-1-yl]-ethanone]	0.88	150
CC1(O)CN(Cc2cnc3cc(Oc4ccc(-c5ccn[nH]5)cn4)ccc3c2)C1 [Example 8, 3-Methyl-1-{7-[5-(2H-pyrazol-3-yl)-pyridin-2-yloxy]-quinolin-3-ylmethyl}-azetidin-3-ol]	2.4	410
COCC(=O)N1CCN(Cc2cnc3cc(Oc4ccc(-c5ccn[nH]5)cn4)ccc3c2)CC1 [Example 4, 2-Methoxy-1-(4-{7-[5-(2H-pyrazol-3-yl)-pyridin-2-yloxy]-quinolin-3-ylmethyl}-piperazin-1-yl)-ethanone]	1.4	170
CN(C(=O)CO)[C@@H]1CCN(Cc2cnc3cc(Oc4ccc(-c5ccn[nH]5)cn4)ccc3c2)C1 [Example 12, 2-Hydroxy-N-methyl-N-((R)-1-{7-[5-(2H-pyrazol-3-yl)-pyridin-2-yloxy]-quinolin-3-ylmethyl}-pyrrolidin-3-yl)-acetamide]	1.8	180
CC(C)(O)C(=O)N1CCN(Cc2cnc3cc(Oc4ccc(-c5ccn[nH]5)cn4)ccc3c2)CC1 [Example 20, 2-Hydroxy-2-methyl-1-(4-{7-[5-(2H-pyrazol-3-yl)-pyridin-2-yloxy]-quinolin-3-ylmethyl)-piperazin-1-yl)-propan-1-one]	1.6	230
O[C@H]1CCN(Cc2cnc3cc(Oc4ccc(-c5ccn[nH]5)cn4)ccc3c2)C1 [Example 13, (S)-1-{7-[5-(2H-Pyrazol-3-yl)-pyridin-2-yloxy]-quinolin-3-ylmethyl)-pyrrolidin-3-ol]	2.5	220
